Marks after values point to notes of the source that are not given here.
Test system: Male Sprague-Dawley rats
Assay: Colic distension model (visceral pain model in the rat), abdominal cramps counted

## CCC(=O)C(=O)O.NC(N)=NCCC[C@H](N)C(=O)O [Arginine alpha-ketobutyrate, arginine alpha-ketobutyrate]
10 mg/kg p.o. pH 1
  Number of abdominal cramps, Average: 15
10 mg/kg p.o. pH 6
  Number of abdominal cramps, Average: 9*
p.o. at pH 1
  Activity in the colon distension model (in words): inactive
p.o. at pH 6 (neutral)
  Activity in the colon distension model (in words): active
